In EP4119138A1 (Universität Hamburg, priority 2021, dated 2023):

Key:
hDHODH = hDHODH (Homo sapiens, UniProt Q02127); assay: hDHODH enzyme assay (DCPIP absorption, initial velocities); assay type: biochemical; details: for IC50: hDHODH inhibition, HsDHODH29-396 35 nM, 25 °C
Description: Expression and purification of the enzyme was carried out following the protocol of DAS et al. (SAR-Based Optimization of a 4-Quinoline Carboxylic Acid Analogue with Potent Antiviral Activity. ACS Med. Chem. Lett. 2013, 4, 517-521). The prepared enzyme stock solution (325 µM) was thawed to 0 °C and carefully diluted to 87.5 nM with ice-cooled Tris-HCl buffer (50 mM Tris-HCl, 0.1 % Triton X-100, pH 8.0)). Stock solutions of all test compounds (100 mM), L-DHO (250 mM) and CoQ1 (250 mM) were prepared in DMSO, stored at -20 °C and thawed to room temperature before use. The reaction was performed in triplicates in a 96 well plate with total volumes of 200 µL containing L-dihydroorotate (L-DHO; 0.10 mM), coenzyme Q1 (CoQ1; 25 µM), 2,6-dichlorophenolindophenol (DCPIP; 60 µM), HsDHODH29-396 (35 nM) and the test compound (varying concentrations) in Tris-HCl buffer.
The compound stock solutions were diluted in Tris-HCl buffer to give nine different concentrations and each sample was treated with a freshly prepared substrate mixture containing L-DHO, CoQ1 and DCPIP. By simultaneous addition of 80 µL ice-cooled enzyme solution ([…]) per well and immediate mixing by thorough pipetting, the reaction was started. The absorption of the mixture was monitored using a spectrophotometer (Berthold Technologies TriStar2S LB942 Multimode Reader, ICE software) with one data point per 10 seconds at an excitation wavelength of 600 nm and a temperature of 25 °C. During the first 200 s from enzyme addition, linear initial enzyme velocites were recorded, from which the IC50 values were calculated by non-linear fitting (Origin software) to the following equation: v = (V0)/(1 + (c)/(IC50)) [formula] wherein • v is the determined initial, linear enzyme velocity, • V0 is the calculated enzyme velocity without test compound and • c is the concentration of added test compound.

S9 metabolism assay = assay type: in vitro ADME, rat; details: for amide cleavage: hydrolysis study in S9 extract of rat liver, identified via LC-MS; for Metabolic stability [% remaining at 1h in rat S9 fraction]: test compound 100 µM, 37 °C
Description: Stock solutions of all test compounds (100 mM) were prepared in DMSO, stored at-20 °C and diluted in PB to 600 µM prior to the assay. Rat liver S9 fractions (SigmaAldrich, Lot # SLCC9026 and # SLCB2232) were combined, aliquoted (200 µL), stored at -80 °C and thawed to 0 °C before use. The reaction was performed in triplicates in eppendorf tubes with total volumes of 300 µL containing MgCl2 (5 mM), NADPH (5 mM), rat S9 fraction (1 mg) and the test compound (100 µM) in phosphate buffer (38.5 mM Na2HPO4, 11.5 mM KH2PO4, pH 7.3). 7-Ethoxycoumarin was assessed as reference inhibitor and a control without inhibitor but an equivalent amount of buffer instead was run. The ice cooled S9 fraction was added to a solution of MgCl2 and NADPH in PB and the resulting mixture was preincubated for 10 minutes at 37 °C in a shaker. Subsequently the reaction was started by addition of the test compound (50 µL), followed by threefold pipetting. After 0 h, 1 h and 3 h, samples of 50 µL were taken from the reaction, mixed with 150 µL ice-cooled methanol and centrifuged at 14000 rpm and 4 °C for 15 minutes. The supernatant was filtered with a syringe fiter, immediately quantified on HPLC and stored at -20 °C until LC/MS analysis.

[1] = Membrane permeability (PAMPA assay); assay type: in vitro ADME; details: PBS pH 7.4, 5 h, 25 °C
Description: Stock solutions of all test compounds (100 mM) were prepared in DMSO, stored at -20 °C and diluted with phosphate buffered saline (PBS, 137 mM NaCl, 2.7 mM KCl, 10 mM Na2HPO4, 2.0 mM KH2PO4, pH 7.4) to 200 µM prior to the experiment. The assay was performed in triplicates in a 96 well Corning Gentest Precoated PAMPA Plate System, which was stored at -20 °C and thawed to room temperature for 1 h prior to the assay. Wells of the donor plate were filled with 300 µL of the compound solutions (200 µM) and 200 µL PBS were added to the wells of the receiver plate. Two controls without inhibitor but an equivalent amount of buffer instead was run. Bubble-free assembling of the two plates was followed by 5 h incubation at 25 °C. Finally, the plates were carefully separated from each other. 150 µL of each well of both plates were transferred to black 96-well FluoroNunc™ plates and quantified on fluorescence spectrophotometer (Berthold Technologies TriStar^2S LB942 Multimode Reader, ICE software). Membrane Permeabilities were calculated using the following equation: Ppampa = (−ln(1−(cacc (t))/(ceq)))/(Aperm ⋅((1)/(Vdon)+(1)/(Vacc))⋅t) [formula] wherein • Cacc(t) is the compound concentration in acceptor well at time t, • Aperm is the area of the membrane filter (0.3 cm^2), • Vdon is the donor well volume (0.3 mL), • Vacc is the acceptor well volume (0.2 mL) and • Ceq is the equilibrium concentration with ceq = (cdon (t)⋅Vdon + cacc (t)⋅Vacc)/(Vdon + Vacc) [formula] where cdon(t) is the compound concentration in donor well at time t.

LASV Ba366 = assay: microbe, parasite or virus in culture; assay type: cell-based, Lassa virus; details: Mammarenavirus lassaense, Vero, 72 h
[2] = Octanol-water partition coefficient (logD); assay type: physicochemical; details: PBS pH 7.4 / octanol, 25 °C; read-out: Log D (PBS pH 7.4/ octanol)
Description: Octanol and phosphate buffered saline (PBS, 137 mM NaCl, 2.7 mM KCl, 10 mM Na2HPO4, 2.0 mM KH2PO4, pH 7.4) were saturated with each other prior to the experiment. Stock solutions of all test compounds (100 mM) were prepared in DMSO, stored at - 20 °C and diluted with the saturated PBS to 100 µM prior to the experiment. The experiment was performed in duplicates in 2 mL HPLC-vials. 300 µL of the test compound solution (100 µM) was overlayered with 300 µL saturated octanol. The emulsions were vortexed for 1 min and shaken for 1 h at 180 rpm and 25 °C. After phase separation, the aqueous phases and the initial 100 µM compound solution were quantified on HPLC.

EBOV Mayinga = assay: microbe, parasite or virus in culture; assay type: cell-based, Ebola virus; details: Zaire ebolavirus, Vero, 96 h
CCHFV Afg 09-2990 = assay: microbe, parasite or virus in culture; assay type: cell-based, Crimean-Congo hemorrhagic fever orthonairovirus; details: Orthonairovirus haemorrhagiae, Vero, 72 h
[3] = system: human PBMCs (CD4/CD8 T cells); assay: Lymphocyte inhibition, Cytostim-stimulated PBMCs, flow cytometry; assay type: cell-based; details: T-cell stimulation by Cytostim, read-out: IC50 for CD4 and CD8 replication
Description: Lymphocyte inhibition was determined by using human PBMCs (peripheral blood mononuclear cells) as cell culture. The inhibitor compound was added at 8 different concentrations with each determination in triplicate and one control without inhibitor. T-cell stimulation was done by Cytostim, a reagent that binds T-cell receptors to MHC molecules of the antigen-presenting cells in an antibody-based manner and enables T-cell stimulation. Quantification was achieved by a flow cytometry-based method (Facs analysis) with staining of PBMCs with eFluor670 (eBioscience(TM)). The PBMCs are assigned to their populations (CD4/CD8 T cells) by use of other markers.

in vitro = details: African green monkey

hDHODH, sequence (Q02127 29-395 limits assumed): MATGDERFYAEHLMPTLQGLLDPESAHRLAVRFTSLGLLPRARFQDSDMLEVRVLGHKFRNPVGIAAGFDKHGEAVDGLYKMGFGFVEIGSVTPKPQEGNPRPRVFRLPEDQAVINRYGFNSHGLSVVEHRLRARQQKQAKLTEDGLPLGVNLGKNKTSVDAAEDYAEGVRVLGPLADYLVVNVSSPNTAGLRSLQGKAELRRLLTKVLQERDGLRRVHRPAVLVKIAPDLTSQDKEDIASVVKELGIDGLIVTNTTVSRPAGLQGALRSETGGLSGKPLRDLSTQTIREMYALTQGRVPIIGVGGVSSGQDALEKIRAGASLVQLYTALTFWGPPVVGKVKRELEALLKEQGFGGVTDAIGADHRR

Row | SMILES | IC50 (hDHODH) [nM] | amide cleavage (S9 metabolism assay) | Metabolic stability [% remaining at 1h in rat S9 fraction] (S9 metabolism assay) [%] | Papp at 5 h, 200 µM [1] [×10⁻⁶ cm/s] | IC50 (LASV Ba366) [nM] | logD [2] | IC50 (EBOV Mayinga) [nM] | IC50 (CCHFV Afg 09-2990) [nM] | IC50 [3] [nM] | CC50 (in vitro) [nM] | percentual inhibition of hDHODH (hDHODH; at a 1 µM concentration) [%]
1 | O=C(NCc1cc2cccc(C(F)(F)F)c2o1)Nc1ccccc1C(=O)O [Example 2, 2-(3-((7-(trifluoromethyl)benzofuran-2-yl)methyl)ureido)benzoic acid] | 90.7 | no amide cleavage | 92.0 | 3.23 | 1000 | 1.96 | – | – | – | – | –
2 | CCC(C)(C)c1cccc2cc(CNC(=O)Nc3ccccc3C(=O)O)oc12 [Example 1] | 9.2 | no amide cleavage | 68.2 | 5.74 | 35 | 2.98 | 14 | 100 | ~150 | > 1000 | –
3 | CCC(C)c1ccccc1OCCCC(=O)Nc1ccccc1C(=O)O (centres unmarked) [reference compound] | – | showed a cleavage of the amide bond | – | – | – | – | – | – | – | – | –
4 | CCC(=O)Nc1ccc(C#Cc2ccc(N3CCOCC3)cc2)cc1C(=O)O [Example 4] | 50 | – | – | – | 600 | – | – | – | – | – | –
5 | O=C(NCc1cc2cc(F)cc(C(F)(F)F)c2o1)Nc1ccccc1C(=O)O [Example 3] | ~230 | – | – | – | – | – | – | – | – | – | –
6 | O=C(Nc1cnccc1C(=O)O)Nc1cccc2ccccc12 [Example 18] | 81 | did not show amide cleavage | 89.6 | 6.84 | – | 0.32 | – | – | – | – | 91
